According to patent US10206896B2, “Method of treating delayed healing of a wound associated with diabetes” (KUWAIT UNIVERSITY, priority 2014, dated 2019):

Experiments:
[1] = system: control fibroblasts (CFs); test: BrdU incorporation into DNA (cell proliferation) in control fibroblasts; format: cell-based, Wistar rat; conditions: 24-hr serum starved CFs, vs starved cells; dose providing the maximum response (IGF 50 ng, PDGF 1 nM, EGF 100 ng)
Procedure: Cell culture and HP treatment. […] Assessment of key fibroblast functions essential for wound healing. To assess cell proliferation, fibroblasts were seeded into a 96-well plate at a density of 1×10^4 per well and were allowed to adhere overnight in DMEM medium supplemented with 10% FCS. After arrest by incubation in serum-free medium for 24 hours, the cells were exposed to growth factors, and the incorporation of bromodeoxyuridine (BrdU) into DNA was determined using the manufacturer's protocol (Roche Diagnostics). Similarly, for the in vitro wound (migration) experiments, cultured fibroblasts were grown in six-well plates until they reached confluence. The medium was removed, the cells were washed with PBS 3× before culturing was continued in serum-free DMEM containing 0.5% BSA for an additional 24 hours. […] The rate of wound healing was quantified as described in the literature […] Caveolin-1 protein expression and PDGF-induced phosphorylation of Akt (20 min) and ERK (10 min) in 24-hr serum starved fibroblasts were determined using a Western-blotting-based technique. A proliferation index encompassing BrdU incorporation into DNA and cell cycle progression was evaluated in response to various growth factors (e.g., IGF, 50 ng; PDGF, 1 nM; EGF, 100 ng) in 24-hr serum starved fibroblast. […]

[2] = system: control fibroblasts (CFs); test: In vitro scratch wound (cell migration) in control fibroblasts; format: cell-based, Wistar rat; conditions: 24 hrs post-injury
Procedure: Cell culture and HP treatment. […] Assessment of key fibroblast functions essential for wound healing. To assess cell proliferation, fibroblasts were seeded into a 96-well plate at a density of 1×10^4 per well and were allowed to adhere overnight in DMEM medium supplemented with 10% FCS. After arrest by incubation in serum-free medium for 24 hours, the cells were exposed to growth factors, and the incorporation of bromodeoxyuridine (BrdU) into DNA was determined using the manufacturer's protocol (Roche Diagnostics). Similarly, for the in vitro wound (migration) experiments, cultured fibroblasts were grown in six-well plates until they reached confluence. The medium was removed, the cells were washed with PBS 3× before culturing was continued in serum-free DMEM containing 0.5% BSA for an additional 24 hours. Thereafter, the monolayer was artificially wounded by using a pipette tip to scratch across the plate; the cells were washed with PBS to remove the detached cells and then cultured in serum-free medium in the presence of mitomyocin C (10 μg/ml) to prevent cell proliferation. The rate of wound healing was quantified as described in the literature […] Caveolin-1 protein expression and PDGF-induced phosphorylation of Akt (20 min) and ERK (10 min) in 24-hr serum starved fibroblasts were determined using a Western-blotting-based technique. A proliferation index encompassing BrdU incorporation into DNA and cell cycle progression was evaluated in response to various growth factors (e.g., IGF, 50 ng; PDGF, 1 nM; EGF, 100 ng) in 24-hr serum starved fibroblast. An in vitro wound-healing model conducted by scratching starved confluent cultured fibroblasts with a pipette tip was used to monitor the impact of PDGF on cell migration. […] In serum-induced proliferating cells in CFs, the optical density at 450 nm (OD450) was more than 10-fold higher than that observed for starved cells.

[3] = system: diabetic fibroblasts (DFs); test: BrdU incorporation into DNA (cell proliferation) in diabetic fibroblasts; format: cell-based, GotoKakizaki (GK) rat; conditions: treated DFs compared with DFs
Procedure: (§1) Cell culture and HP treatment.
Assessment of key fibroblast functions essential for wound healing. To assess cell proliferation, fibroblasts were seeded into a 96-well plate at a density of 1×10^4 per well and were allowed to adhere overnight in DMEM medium supplemented with 10% FCS. After arrest by incubation in serum-free medium for 24 hours, the cells were exposed to growth factors, and the incorporation of bromodeoxyuridine (BrdU) into DNA was determined using the manufacturer's protocol (Roche Diagnostics). Similarly, for the in vitro wound (migration) experiments, cultured fibroblasts were grown in six-well plates until they reached confluence. The medium was removed, the cells were washed with PBS 3× before culturing was continued in serum-free DMEM containing 0.5% BSA for an additional 24 hours. Thereafter, the monolayer was artificially wounded by using a pipette tip to scratch across the plate; the cells were washed with PBS to remove the detached cells and then cultured in serum-free medium in the presence of mitomyocin C (10 μg/ml) to prevent cell proliferation. The rate of wound healing was quantified as described in the literature

[4] = system: chronic oxidative stress fibroblasts (OS-CFs); test: Premature senescence in chronic oxidative stress fibroblasts; format: cell-based, Wistar rat
Procedure: as §1
Oxidatively-stressed CFs (OS-CFs). A heightened state of oxidative stress and premature senescence in CFs were induced using hydrogen peroxide (HP) as a stressor. The HP treatment was conducted by seeding approximately 1×10^6 cells in a T75 tissue culture flask. Twenty-four hours later, the cells were exposed to a sublethal dose of HP (150 μM) for 2 hours, washed 2× with PBS and after 4 days of culturing in HP free medium; they were split in a 1:2 ratio, and then the aforementioned protocol was repeated again for cells receiving the second and third HP treatment. A third passage HP-treated CFs denoted in the current study as (OS-CFs) together with the corresponding CFs and DFs were used in most of the assays outlined below.

[5] = system: circular wound of a diabetic rat; test: Full-thickness excisional circular wound, rate of wound closure; format: in vivo, GotoKakizaki (GK) rat; conditions: composition of 30 μM 18α-GA and pluronic acid applied to the wound
Procedure: Wound model, drug treatment and macroscopic evaluation. All of the animal procedures were performed in accordance with the NIH Guidance for the Care and Use of Laboratory Animals. Female GotoKakizaki rats (GK) were used in the current study. Detailed information regarding this animal model for non-obese type 2 diabetes has been previously described. Weight and age-matched female Wistar rats (Kuwait University breeding colony) served as the corresponding controls. All of the animals were maintained under standard conditions with a 12 hour on/off light cycle, commercial diet, and water ad libitum. […]
The targeted depletion of caveolin-1 was achieved using the antisense vivo-morpholino oligomers (MOs) that were synthesized and designed by Gene Tools, LLC (Eugene, Oreg.). […] The specificity of the cav-1 morphant phenotype was determined using rat caveolin-1 cRNA that lacked the antisense MO binding site. […] The wound area was analyzed using Adobe Photoshop (version 7.0; Adobe Systems), and the percentage of wound closure was derived by the following formula: (1−[current wound size/initial wound size])×100. […]
Full-thickness excisional wounds were induced in the control and GK (a non-obese genetic model of type 2 diabetes), and key parameters related to cellular senescence, caveolin-1 signaling and oxidative stress were measured 10 days post-injury. […]

[6] = system: diabetic fibroblasts (DFs)
Procedure: Cell culture and HP treatment. Primary dermal fibroblasts cell lines were established from the dorsal skin of female GotoKakizaki (GK; age 12-15 months) rat, a model for non-obese type 2 diabetes (DFs) and their Wistar control counterparts (CFs). Briefly, the dermis was cut into small pieces and incubated in Dulbecco's modified Eagle medium (DMEM; Invitrogen) containing collagenase (250 U/ml; Sigma) for 30 minutes at 37° C. in 5% CO2 with constant agitation. The sections were triturated vigorously to release fibroblasts, and these cells were collected by centrifugation. […]
Senescence-associated β-galactosidase staining and quantification assays. The senescence-associated β-galactosidase (SA-β-gal) activity was determined using a senescence β-gal staining kit (Cell Signaling Technology). […] For a prices quantification of β-gal activity, the rate of conversion of 4-methylumbelliferyl-3-D-galactopyranoside to the fluorescence hydrolyzed product 4-methylumbellifrone at pH 6 was assessed using previously published procedure (Gary and kindell 2005).
CFs were transfected with caveolin-1-pCMV(pCMV-Cav-1) or its vector control (pCMV-GRP), whereas DFs were rendered caveolin-1 deficient (Cav-1 siRNA) using siRNA-based technique. […] Most of the assays were performed in triplicate, and the data was expressed as the means±SEM of at least three independent experiments […]

## IGF: mitotic growth factor
[1]
  increase of proliferation rate (BrdU incorporation): ~6.7 fold
[2]
  number of cells that migrated into the cell-free wound zone: markedly increased

## CC1(C)[C@@H](O)CC[C@]2(C)[C@H]3C(=O)C=C4[C@H]5C[C@@](C)(C(=O)O)CC[C@]5(C)CC[C@@]4(C)[C@]3(C)CC[C@@H]12 [18α-GA, 18α-Glycyrrhetinic acid]
[3]
  rate of proliferation (BrdU incorporation into DNA): increased rate of proliferation
[4]
  premature senescence: can be reversed
[5]
  impaired wound healing (rate of wound closure): ameliorate impaired wound healing
[6]; DFs
  premature senescence: can be reversed
[6]; treated DFs compared with DFs
  level/activity of SA-β-gal: significantly lower level

## PDGF
[1]
  increase of proliferation rate (BrdU incorporation): approximately 10 fold
[2]
  number of cells that migrated into the cell-free wound zone: markedly increased
  relative potency on cell migration among growth factors: most potent among them
